Read-outs that look alike come from different tables or passages of the source.
How the values were obtained:
Scurfy mice [1] = tested on: Scurfy mice
Protocol: (§1) Scurfy phenotype was obtained by backcrossing on B6. 129S7-Rag1tm1Mom/J background, allowing generation of homozygous XSf/XSfRag1−/− female. Crossing of these females with WT C57BL/6J mice result in the birth only of diseased XSf/Y.Rag1−/+male.
(§2) First, scurfy mice were treated with an immunosuppressor: Temsirolimus (LC laboratories, Woburn, USA) was injected S.C at the dose of 2 mg/kg at day 8 and day 10 after birth. This treatment was continued twice a week in some experiment. Anti-CD3 Fab'2 (clone 145-2C11, BioXCell, West Lebanon, USA) was injected S.C at 20 μg/day during 5 days at day 8 after birth. Cyclophosphamide (European Pharmacopoeia (EP) Reference Standard, Merck KGaA, Darmstadt, Germany) was injected I.P. at 50, 100, or 150 mg/kg 10 days after birth. At day 10 or day 14, CD4^+CD25^+CD45.1^+cells (containing putative Tregs) or engineered CD4^+T cells (Foxp3.LNGFR or LNGFR) from Scurfy mice were injected at 0.5×10^6, 0.75×10^6 or 1×10^6 of cells respectively via I.P injections. […] In indicated experiments, together with cells, Proleukin (human IL-2, aldesleukine, Novartis) was injected at 1.000 UI/g via I.P and during 5 days then once a week.
(§3) As shown in FIGS. 1-7, the inventors compared 7 different experimental protocols to identify the one allowing to test the efficacy of Treg to treat Scurfy autoimmune syndrome. Tregs were sorted on the basis of CD4 and CD25 expression from CD45.1 congenic B6 mice and injected at a dose of 5×10^5 intra-peritoneally at day 10 or 14. The criteria was the scurfy score measured every 3 to 4 days from birth and when signs of efficiency evidenced improved scores for mice transplanted with Tregs, survival was followed. Three drugs were tested as conditioning regimens: Temsirolimus, subcutaneously injected at a dose of 2 mg/kg daily from day 4 to day 28 or from day 4 to day 9 (post-birth), anti-CD3 Fab'2, subcutaneously injected at a dose of 20 micrograms/recipient, daily from day 8 to day 12, Cyclophosphamide at 3 different doses (50, 100 and 150 mg/kg) injected at day 10.

Scurfy mice [2] = experiment: Survival of Scurfy mice; type: in vivo
Protocol: as §1, §2
Values are represented as means ±SD, unless stated otherwise. GraphPad Prism 6.0 was used for all statistical analyses. P value was calculated with a confidence interval of 95% to indicate the statistical significance between groups. Statistical test included non-parametric Mann-Whitney test, Fischer exact test or two ways ANOVA depending on the dataset. A P value <0.05 was considered statistically significant. Statistically significant differences between groups are noted in figures with asterisks (*p<0.05, **p<0.01, ***p<0.001, ****p<0.0001). Correlations were performed with a non-parametric Spearman correlation. Survival was analyzed with Log-rank test (Mantel-Cox).
as §3

Scurfy mice [3] = tested on: Scurfy mice; remark: listed apart in the source
Protocol: as §2, §3

CD4+ T cells = experiment: T cell depletion after immunosuppressive drug; parameters: species or system mice; conditions: mouse, in vivo
Protocol: as §2

[4] = first series, Cy 50 mg/kg conditioned Scurfy mice

Molecule | scurfy score (Scurfy mice [1]; Temsirolimus twice a week starting at disease onset (day 8), drug alone) | improvement of Scurfy score after the infusion of Tregs (Scurfy mice [1]; drug used as conditioning regimen, 5×10^5 Tregs i.p. at day 10 or 14) | life expectancy (Scurfy mice [2]; Temsirolimus twice a week starting at day 8) | scurfy score (Scurfy mice [1]; mouse, in vivo) | delay of the death of scurfy mice (Scurfy mice [2]; cyclophosphamide at all doses (50, 100 and 150 mg/kg) at day 10, no cells) | mean survival (Scurfy mice [2]; [4]) | survival following Cy injection (Scurfy mice [2]; increased from 30 (untreated mice) to 90 days, p=0.01) | mean survival (Scurfy mice [2]; second series, 90 days of follow-up) | general toxicity (Scurfy mice [3]; 50 mg/kg at day 10) | general toxicity revealed by the health status of the mice (Scurfy mice [3]; 100 and 150 mg/kg at day 10) | toxicity observed (Scurfy mice [3]; Cy 50, 100 or 150 at day 10, correlated with dose) | toxicities in young animals (Scurfy mice [3]; even low dose of Cy) | CD4 T cells nadir (time after injection) (CD4+ T cells) | T cells depletion across doses (CD4+ T cells) | cell count normalized (time after injection) (CD4+ T cells) | effect on auto-immunity in Scurfy settings (Scurfy mice [1]; low dose IL-2, 1.000 UI/g)
CO[C@H]1C[C@@H]2CC[C@@H](C)[C@@](O)(O2)C(=O)C(=O)N2CCCC[C@H]2C(=O)O[C@H]([C@H](C)C[C@@H]2CC[C@@H](OC(=O)C(C)(CO)CO)[C@H](OC)C2)CC(=O)[C@H](C)/C=C(\C)[C@@H](O)[C@@H](OC)C(=O)[C@H](C)C[C@H](C)/C=C/C=C/C=C/1C [Temsirolimus] | reduction of Scurfy score | did not allow to reveal any improvement | doubling of life expectancy |  |  |  |  |  |  |  |  |  |  |  |  | 
O.O=P1(N(CCCl)CCCl)NCCCO1 (centres unmarked) [Cyclophosphamide, 2-[bis(2-chloroethyl)amino]-tetrahydro-2H-1,3,2-oxazaphosphorine-2-oxide monohydrate] |  |  |  | more stable scurfy score | more than 60 days | 39 days | 90 days | 47 days | absent | general toxicity | growth retardation and a transient alopecia | alopecia and growth retardation | 4 days | not different with the three doses | 10 days | 
IL-2: Proleukin (human IL-2, aldesleukine, Novartis) |  |  |  |  |  | 51 days |  |  |  |  |  |  |  |  |  | did not worsen auto-immunity

From US20220168394A1, “METHODS OF INDUCING OR RESTORING IMMUNE TOLERANCE” (INSERM (Institut National de la Santé et de la Recherche …, priority 2019, published 2022)
